Our source for the Ki, Km and IC50 values is publication PMC3835915, “Diversification of Fungal Specific Class A Glutathione Transferases in Saprotrophic Fungi” (PLoS ONE, 2013).

The target in one assay is T1, CcGSTFuA2461.
T1 construct: gene GSTFuA2461; full length, untagged, pET-3d, E. coli BL21(DE3) pSBET; primers encode N-term MAITFYDL, C-term TGSKL
The experiment in a line: inhibition of MUA esterase activity, fluorescence. It counts as biochemical, Coprinopsis cinerea. The note with it: competitive vs MUA; no GSH; 30 mM Tris-HCl pH 8; 2 µM enzyme; read-out: PcGSTFuA1 / ANS. The text has this: inhibition of MUA esterase activity, fluorescence on CcGSTFuA2461

A further assay deals with T2, CcGSTFuA6800.
T2 construct: gene GSTFuA6800; full length, untagged, pET-3d, E. coli BL21(DE3) pSBET; primers encode N-term MAIILYDL, C-term YTTVV
The experiment in a line: esterase activity, fluorescence. As to conditions: no GSH. It counts as biochemical, Coprinopsis cinerea. An excerpt: esterase activity, fluorescence on CcGSTFuA6800

A further assay concerns the target T3, PcGSTFuA4 (Phanerodontia chrysosporium, UniProt M1NR33).
T3 construct: full length, untagged, pET-3d, E. coli BL21(DE3) pSBET; primers encode N-term MADVITLY, C-term AHVDL
Description: ANS displacement, fluorescence. The assay is classed as binding. As to conditions: TE buffer pH 8.0; 3 µM enzyme; ANS probe at L-site overlapping G-site. An excerpt:
ANS displacement, fluorescence on PcGSTFuA4

Another assay deals with T4, PcGSTFuA1 (Phanerodontia chrysosporium, UniProt I6ZUH3).
T4 construct: full length, untagged, pET-3d, E. coli BL21(DE3) pSBET; Ala inserted after Met1; dimer; primers encode N-term MAQPIVF, C-term EQVDV
T4 sequence (I6ZUH3 entry or part of it): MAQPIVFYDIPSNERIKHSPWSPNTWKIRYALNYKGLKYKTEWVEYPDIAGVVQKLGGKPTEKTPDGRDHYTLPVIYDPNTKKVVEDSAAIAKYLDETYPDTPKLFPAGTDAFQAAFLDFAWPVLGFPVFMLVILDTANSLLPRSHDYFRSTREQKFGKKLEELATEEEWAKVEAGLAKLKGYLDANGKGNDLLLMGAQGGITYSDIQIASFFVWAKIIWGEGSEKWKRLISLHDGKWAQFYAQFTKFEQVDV
The experiment in a line: ANS displacement, fluorescence. The assay is classed as binding. The text has this:
ANS displacement, fluorescence on PcGSTFuA1

Assay [1] deals with T5, PcGSTFuA3.
T5 construct: gene GSTFuA3; full length, untagged, pET-3d, E. coli BL21(DE3) pSBET; Ala inserted after Met1; dimer; primers encode N-term MASLEPII, C-term EFVDV
Description: ANS displacement, fluorescence. The assay is classed as binding, Phanerodontia chrysosporium. As to conditions: TE buffer pH 8.0; 3 µM enzyme; ANS probe at L-site overlapping G-site. The text has this: ANS displacement, fluorescence on PcGSTFuA3

The target of assay [2] is T6, CcGSTFuA6801.
T6 construct: gene GSTFuA6801; full length, untagged, pET-3d, E. coli BL21(DE3) pSBET; primers encode N-term MAITFYDI, C-term YHTVA
Description: ANS displacement, fluorescence. It counts as binding, Coprinopsis cinerea. As to conditions: TE buffer pH 8.0; 3 µM enzyme; ANS probe; read-out: PcGSTFuA3 / ANS. The text has this: ANS displacement, fluorescence on CcGSTFuA6801

A further assay has as its target T7, CcGSTFuA6820.
T7 construct: gene GSTFuA6820; full length, untagged, pET-3d, E. coli BL21(DE3) pSBET; primers encode N-term MAITLYDS, C-term YQAVH
The experiment in a line: inhibition of MUA esterase activity, fluorescence. The assay is classed as biochemical, Coprinopsis cinerea. The note with it: non-competitive vs MUA; no GSH; 30 mM Tris-HCl pH 8; 2 µM enzyme; read-out: PcGSTFuA4 / ANS. The text has this:
inhibition of MUA esterase activity, fluorescence on CcGSTFuA6820

The test system of assay [3] is T8, PcGSTFuA2.
T8 construct: gene GSTFuA2; full length, untagged, pET-3d, E. coli BL21(DE3) pSBET; Ala inserted after Met1; dimer; primers encode N-term MASQPIVF, C-term ERADD
Description: esterase activity, fluorescence. It counts as biochemical, Phanerodontia chrysosporium. As to conditions: no GSH; 30 mM Tris-HCl pH 8. The text has this: esterase activity, fluorescence on PcGSTFuA2

In assay [4] the target is T8, PcGSTFuA2. The experiment in a line: ANS displacement, fluorescence. The assay is classed as binding, Phanerodontia chrysosporium. As to conditions: TE buffer pH 8.0; 3 µM enzyme; ANS probe at L-site overlapping G-site. An excerpt: ANS displacement, fluorescence on PcGSTFuA2
In assay [5] the test system is T6, CcGSTFuA6801. The experiment in a line: GSH conjugation, absorbance […] nm. It counts as biochemical, Coprinopsis cinerea. As to conditions: 5 mM GSH; pH 6.5; 2% acetonitrile.
Assay [6] concerns T5, PcGSTFuA3. The experiment in a line: GSH conjugation, absorbance […] nm. The assay is classed as biochemical, Phanerodontia chrysosporium. The note with it: 5 mM GSH; pH 6.5; 2% acetonitrile.

Where two headings read alike, the source gives them in different places.

T3 sequence (M1NR33 entry or part of it): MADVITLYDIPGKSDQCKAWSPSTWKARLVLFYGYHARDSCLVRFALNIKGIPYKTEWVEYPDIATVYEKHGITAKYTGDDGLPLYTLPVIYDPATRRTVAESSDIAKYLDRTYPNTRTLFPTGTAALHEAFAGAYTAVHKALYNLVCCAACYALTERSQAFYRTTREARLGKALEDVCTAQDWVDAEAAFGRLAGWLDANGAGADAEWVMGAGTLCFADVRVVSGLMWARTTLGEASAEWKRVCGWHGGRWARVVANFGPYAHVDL

`O=C(O)c1ccc(Cl)c([N+](=O)[O-])c1` [4-chloro-3-nitrobenzoic acid]: the Ki on CcGSTFuA2461 was 287 ± 29.7 µM.

Regarding `CC(=O)Oc1ccc2c(c1)Oc1cc(OC(C)=O)ccc1C21OC(=O)c2cc(CCl)ccc21` [CMFDA], the Km with CcGSTFuA6800 (50 mM phosphate pH 8.0, read-out: CcGSTFuA6800) stood at 0.153 ± 0.023 µM.

Turning to `COc1cc(/C=C/C=O)ccc1O` [Coniferaldehyde], the IC50 came to 147 ± 5.1 µM on PcGSTFuA4, 62.3 ± 1.2 µM at PcGSTFuA1, 68.4 ± 25.3 µM on PcGSTFuA3 [1] and 327 ± 50.6 µM on CcGSTFuA6801 [2].

In the case of `O=C(O)c1cc(O)c(O)c(O)c1` [Gallic acid], the results for the Ki at CcGSTFuA2461 and at CcGSTFuA6820 were 114 ± 8.9 µM and 566 ± 16.5 µM, respectively.

Consider `CC(=O)Oc1ccc2c(C)cc(=O)oc2c1` [MUA], for which the Km was 25.4 ± 4.37 µM with CcGSTFuA6800 (30 mM Tris-HCl pH 8, read-out: PcGSTFUA2) and 23.5 ± 6.2 µM in the assay on PcGSTFuA2 [3].

For `COc1cc(C=O)cc(OC)c1O` [Syringaldehyde], the IC50 on PcGSTFuA4 came to 199 ± 25.2 µM; at PcGSTFuA1, 62.5 ± 1.6 µM; on PcGSTFuA3 [1], 37.2 ± 3.8 µM; on CcGSTFuA6801 [2], 276 ± 97.8 µM; at PcGSTFuA2 [4] it was 89.3 ± 2.8 µM. Moreover, the Ki on CcGSTFuA6820 was 594 ± 37.6 µM.

For `COc1cc(C=O)ccc1O` [Vanillin], the IC50 at PcGSTFuA2 [4] came to 84.7 ± 5.2 µM.

For `S=C=NCCc1ccccc1` [phenethyl-ITC], the Km turned out to be 41.6 ± 3.73 µM with CcGSTFuA6801 [5] and 53.2 ± 5.37 µM with PcGSTFuA3 [6].
